Source: publication PMC3191538 (Bioorganic & medicinal chemistry, 2011)
Where “and” joins values, the source holds several entries; their conditions need not be identical. Equal entries are not always repeated.

Assays:
[1] = test system: Norwalk virus 3C protease; conditions: unpublished data; cited from earlier work
[2] = test system: HG23 cells; test: Cytotoxic effects on HG23 cells; type: cell-based; conditions: median toxic dose at 48 hr of treatment, 0-320 μM
[3] = test system: Norwalk virus (NV) replicon in HG23 cells; test: Antiviral effect in NV replicon-harboring cells; type: cell-based; conditions: discussion of Table 1

Row | SMILES | inhibition of Norwalk virus 3C protease (in words) [1] | TD50 [2] | anti-norovirus activity (in words) [3]
1 | O=S1(=O)NCCN1Cc1cccc(Oc2ccccc2)c1 [Compound 2a, 2-(3-Phenoxybenzyl)-1,2,5-thiadiazolidine 1,1-dioxide] | does not arise from the inhibition of Norwalk virus 3C protease | 50 ± 9.2 µM | 
2 | O=S1(=O)NCCN1CC1CCCN(Cc2ccccc2)C1 (stereo not shown) [Compound 12, 1-Benzyl-3-[(1,1-dioxido-1,2,5-thiadiazolidin-2-yl)methyl]piperidine] |  |  | devoid of anti-norovirus activity
3 | NC(=O)CN1CCN(Cc2cccc(Oc3ccccc3)c2)S1(=O)=O [Compound 13m, 2-[5-(3-Phenoxybenzyl)-1,1-dioxido-1,2,5-thiadiazolidin-2-yl]acetamide] |  |  | lacked activity
4 | O=C(O)CN1CCN(Cc2cccc(Oc3ccccc3)c2)S1(=O)=O [Compound 14a, [5-(3-Phenoxybenzyl)-1,1-dioxido-1,2,5-thiadiazolidin-2-yl]acetic acid] |  |  | active
5 | O=C(O)CCCCN1CCN(Cc2cccc(Oc3ccccc3)c2)S1(=O)=O [Compound 14d, 5-[5-(3-Phenoxybenzyl)-1,1-dioxido-1,2,5-thiadiazolidin-2-yl]pentanoic acid] |  |  | active
6 | O=S1(=O)N(CCN2CCOCC2)CCN1Cc1cccc(Oc2ccccc2)c1 [Compound 17a, 4-{2-[5-(3-Phenoxybenzyl)-1,1-dioxido-1,2,5-thiadiazolidin-2-yl]ethyl}morpholine] |  | 51 ± 3.2 µM and 49 ± 7.7 µM | 
